These results are taken from article PMC12153338, “Resistance to oxyimino-cephalosporins conferred by an alternative mechanism of hydrolysis by the Acinetobacter-derived cephalosporinase-33 (ADC-33), a class C β-lactamase present in carbapenem-resistant Acinetobacter baumannii (CRAb)” (mBio, 2025).

In brackets after ≈: the same amount, converted by molar mass. Read-outs that look alike come from different tables or passages of the source.

The subject of assay [1] is ADC-218 in DH10B Escherichia coli. Briefly: MIC by broth microdilution, ADC-218 in DH10B E. coli. In kind it is cell-based. Particulars: DH10B E. coli expressing ADC-218 (Adup) from pBCSK−, FDC in iron-depleted cation-adjusted MH broth, mode of triplicate. The protocol: (§1) Susceptibility testing to standard antibiotics was performed by broth microdilution according to 2024 Clinical and Laboratory Standards Institute (CLSI) guidelines ([38]). MICs for FDC were done in iron-depleted cation-adjusted Mueller-Hinton (MH) broth according to CLSI methods. All MICs were interpreted according to the 2024 CLSI guidelines ([38]). MICs are done in triplicate, and the mode MIC value is reported.
(§2) blaADC-7 pBCSK− was cloned and expressed in E. coli DH10B cells as previously described for MIC determinations ([3]). The pBCSK-non-inducible phagemid vector has a chloramphenicol resistance gene used to aid selection. All other blaADC variants were synthesized by GenScript according to the blaADC-7 pBCSK− strategy, cloning into the XbaI/BamHI sites of the pBCSK− vector ([5]).

Assay [2] has as its system DH10B Escherichia coli pBCSK− no insert. As to the kind of experiment: MIC by broth microdilution, DH10B E. coli with pBCSK− no insert. In kind it is cell-based. Conditions: DH10B E. coli with pBCSK− no insert (control strain), FDC in iron-depleted cation-adjusted MH broth. The protocol: as §1, §2
(Broth dilution looks for growth in wells or tubes with falling amounts of substance.)

The subject of assay [3] is ADC-217 in DH10B Escherichia coli. As to the kind of experiment: MIC by broth microdilution, ADC-217 in DH10B E. coli. The format is cell-based. Conditions: DH10B E. coli expressing ADC-217 (non-Adup) from pBCSK−, FDC in iron-depleted cation-adjusted MH broth, mode of triplicate. The protocol:
as §1, §2

Assay [4] addresses ADC-217 (Acinetobacter baumannii, UniProt Q6DRA1, V286E, form not given). Briefly: Competition kinetics with nitrocefin (Ki), ADC-217. The format is biochemical. Conditions: 3 min pre-incubation, Cheng-Prusoff corrected. The protocol:
(§3) For inhibition kinetics, utilizing NCF as a colorimetric substrate of ADCs, the inhibition constant (Ki) of CAZ and FDC with ADCs was determined using competition kinetics as previously described ([5]). After a 3 min pre-incubation of the enzyme (2 nM) with increasing concentration of the inhibitor, measurements of the initial velocities were performed with the addition of 100–200 µM NCF (twofold of the experimentally determined KM value). To determine the average velocities (v0), data from three experiments were fit to the followingequation: […]
(§4) where vu represents the NCF uninhibited velocity and IC50 represents the inhibitor concentration that results in a 50% reduction of vu. The Ki value was corrected for the NCF affinity (KM values for each ADC) with the Cheng-Prusoff ([5]) equation: […]
(§5) The standard error for Ki values was generated by factoring in the larger of the proportional standard errors for the individual IC50 value and the KM -NCF value.

In assay [5] the target is T1, ADC-30 (Acinetobacter baumannii, UniProt A7XM81). As to the kind of experiment: Timed electrospray ionization mass spectrometry of acylated adducts, ADC-30. In kind it is binding. Conditions: ADC-30, +468 Da adduct, at 1 h; enzyme:substrate 1:25. The method, then:
(§6) β-Lactamase (5 µg) was incubated with substrate at a molar ratio of 1:25 (FDC, CAZ, meropenem [MEM]) in sterile 10 mM PBS, pH 7.4, for a total reaction volume of 20 µL (t = 30 s, 1 min, 15 min, 30 min, 1 h, 2 h, and 24 h). Reactions were quenched with 1% acetonitrile and 0.1% formic acid. Samples were analyzed using Q-TOF Waters Synapt-G2-Si and a Waters Acquity ultrapressure liquid chromatography BEH C18 column (1.7 µm […]; 2.1 × 50 mm). MassLynx v.4.1 was used to deconvolute protein peaks. The tune settings for each data run were as follows: capillary voltage at 3.5 kV, sampling cone at 35, source offset at 35, source temperature 100°C, desolvation temperature 500°C, cone gas at 100 L/h, desolvation gas at 800 L/h, and nebulizer bar at 6.0. Mobile phase A was 0.1% formic acid-water. Mobile phase B was 0.1% formic acid-acetonitrile. The mass accuracy for this system is ±5 Da. Mass spectrometry experiments were performed once over a range of time points.

Assay [6] deals with ADC-7 (Acinetobacter baumannii, UniProt Q6DRA1). Briefly: Competition kinetics with nitrocefin (Ki), ADC-7. The format is biochemical. Particulars: 3 min pre-incubation, Cheng-Prusoff corrected. The method, then: as §3, §4, §5
Assay [7] has as its system DH10B alone. Briefly: MIC by broth microdilution, DH10B alone. Conditions: Escherichia coli; DH10B alone (control strain); FDC in iron-depleted cation-adjusted MH broth. In kind it is cell-based. The protocol: as §1, §2
The target of assay [8] is T2, ADC-33 (Acinetobacter baumannii, UniProt A7Y407). Briefly: Competition kinetics with nitrocefin (Ki), ADC-33. In kind it is biochemical. Conditions: 3 min pre-incubation, Cheng-Prusoff corrected. The method, then: as §3, §4, §5
Assay [9] has as its system ADC-33 in DH10B Escherichia coli. As to the kind of experiment: MIC by broth microdilution, ADC-33 in DH10B E. coli. Particulars: DH10B E. coli expressing ADC-33 (Adup) from pBCSK−, FDC in iron-depleted cation-adjusted MH broth, mode of triplicate. In kind it is cell-based. The method, then: as §1, §2
For assay [10], the target named is ADC-172 (Acinetobacter baumannii, UniProt A7Y407, N321K). Briefly: Competition kinetics with nitrocefin (Ki), ADC-172. The format is biochemical. Particulars: 3 min pre-incubation, Cheng-Prusoff corrected. The method, then:
as §3, §4, §5

The test system of assay [11] is ADC-172 in DH10B Escherichia coli. Briefly: MIC by broth microdilution, ADC-172 in DH10B E. coli. In kind it is cell-based. Conditions: DH10B E. coli expressing ADC-172 (Adup) from pBCSK−, FDC in iron-depleted cation-adjusted MH broth, mode of triplicate. The method, then: as §1, §2
In assay [12] the target is ADC-143 (Acinetobacter baumannii, UniProt Q6DRA1, Q144K, form not given). Briefly: Competition kinetics with nitrocefin (Ki), ADC-143. The format is biochemical. Particulars: 3 min pre-incubation, Cheng-Prusoff corrected. The method, then: as §3, §4, §5
The target in assay [13] is T1, ADC-30. Briefly: Competition kinetics with nitrocefin (Ki), ADC-30. In kind it is biochemical. Particulars: 3 min pre-incubation, Cheng-Prusoff corrected. The method, then: as §3, §4, §5
The target of assay [14] is T2, ADC-33. As to the kind of experiment: Timed electrospray ionization mass spectrometry of acylated adducts, ADC-33. Particulars: ADC-33, incubation 30 s–1 h; enzyme:substrate 1:25. In kind it is binding. The method, then: as §6
For assay [15], the target named is T1, ADC-30. As to the kind of experiment: Thermal denaturation by circular dichroism, ADC-30. In kind it is binding. Particulars: ADC-30 12 µM, 1 mM antibiotic, PBS pH 7.4; read-out: change of Tm of the β-lactamase on addition of antibiotic. The method, then:
(§7) For thermal denaturation, protein samples were monitored for helical content by circular dichroism in the far-UV region at 210 and 220 nm using a Jasco J-815 spectrometer (Easton, MD) with a Peltier-effect temperature controller, as previously described ([41]). Enzyme concentrations were 12 µM in phosphate-buffered saline (PBS) pH 7.4. The thermodynamic stability of apoADC-30 and ADC-33, and with 1 mM FDC and CAZ, was determined from equilibrium unfolding curves. With the assumption of a reversible two-state transition, we determined the Tm at the midpoint of equilibrium folding. Thermal denaturation experiments were done in duplicate under the same conditions, with each data point representing the average of three successive scans, and the Tm values are consistent with ±1°C variation.
(Circular dichroism is widely used to follow secondary structure.)

Assay [16] relates to CRAb isolates. Particulars: certain CRAb isolates with elevated MICs; cited from earlier work.
Assay [17] has as its target T2, ADC-33. As to the kind of experiment: Thermal denaturation by circular dichroism, ADC-33. The format is binding. Conditions: ADC-33 12 µM, 1 mM antibiotic, PBS pH 7.4. The protocol: as §7
Assay [18] concerns the target ADC-73 (Acinetobacter baumannii, UniProt A0A059ZDI2). Briefly: Competition kinetics with nitrocefin (Ki), ADC-73. Conditions: 3 min pre-incubation, Cheng-Prusoff corrected. In kind it is biochemical. The method, then: as §3, §4, §5
In assay [19] the target is T2, ADC-33. Particulars: hydrolysis by ADC-33; previously determined; cited from earlier work.

A word on the MIC: it is the lowest concentration found to suppress growth. By Ki is commonly meant the dissociation constant of the complex between target and ligand, obtained from inhibition or displacement. What is called kcat is the maximal rate divided by the concentration of active sites. `CC(C)(O/N=C(\C(=O)N[C@@H]1C(=O)N2C(C(=O)[O-])=C(C[N+]3(CCNC(=O)c4ccc(O)c(O)c4Cl)CCCC3)CS[C@H]12)c1csc(N)n1)C(=O)O` [FDC, cefiderocol]: the minimum inhibitory concentration (MIC) in [1] stood at 0.5 µg/mL (≈ 0.665 µM); in assay [2] it was 0.125 µg/mL (≈ 0.166 µM); in [3], 0.25 µg/mL (≈ 0.332 µM); in [7], 0.06 µg/mL (≈ 0.0798 µM); in assay [9], 0.5 µg/mL (≈ 0.665 µM); in assay [11], 1.0 µg/mL (≈ 1.33 µM). The MIC in [11] (Escherichia coli, read-out: MIC) was 1 µg/mL (≈ 1.33 µM); in [16], at least 64 µg/mL. The inhibition constant Ki in [4] stood at 0.21 ± 0.025 µM; in [6], 75 ± 5.32 µM; in assay [8], 19.3 ± 1.46 µM; in assay [10], 3.26 ± 0.31 µM; in [12], 171 ± 27.7 µM; in assay [13], 62.7 ± 3.95 µM. Besides, the affinity in assay [18] corresponds to a Ki of 111 ± 9.7 µM. For the same compound, the “percentage of acylated adduct” value in [5] is 70%. Moreover, the “formation of stable acyl-enzyme adduct” value in [14] is “did not form a stable acyl-enzyme adduct”. Moreover, the ΔTm at 1000 µM in assay [15] turned out to be 2 °C. Besides, the “change of Tm of the β-lactamase on addition of antibiotic” value in [17] is on record as “not observed”. Besides, the kcat in assay [19] is 0.60 s⁻¹.
